Laboratory results reported in ChEMBL document CHEMBL1201862, “PubChem BioAssay data set” (2004).
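Interpolation was linear, between the two tested concentrations surrounding the appropriate level; five concentrations were tested over 48 hours in 96-well plates. GI50 = concentration required for 50% inhibition of growth.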 Activity calls are given as the source filed them. No stated cut-off is given here; in the data, active = GI50 up to about 1.1 µM and inactive = higher.

Columns and labels:
Experiment in all cases: growth of human tumour cells (NCI), 48 h
[1] = tested on: HOP-62
[2] = tested on: OVCAR-8
[3] = tested on: HT-29
[4] = tested on: SN12C
[5] = tested on: TK-10
[6] = tested on: NCI-H460
[7] = tested on: HCT-116
[8] = tested on: SR
[9] = tested on: SK-OV-3
[10] = tested on: HCC 2998
[11] = tested on: CCRF-CEM
[12] = tested on: SF-295
[13] = tested on: RXF 393
[14] = tested on: UO-31
[15] = tested on: EKVX
[16] = tested on: A549
[17] = tested on: NCI/ADR-RES
[18] = tested on: MDA-MB-435

Measured: GI50

O=C1CC2C(=O)N(Cc3ccccc3)C1C=C2S(=O)(=O)c1ccccc1 (centres undefined)
inactive: [1] > 100 µM | [2] > 100 µM | [3] > 100 µM | [4] > 100 µM | [5] > 100 µM | [6] > 100 µM | [7] > 100 µM | [8] > 100 µM | [9] > 100 µM | [10] > 100 µM | [11] > 100 µM | [12] > 100 µM | [13] > 100 µM | [14] > 100 µM | [15] > 100 µM | [16] > 100 µM

CC1(C)CCc2cc3c(cc2O1)OCC1c2cc4c(cc2OC31)OCO4 (centres undefined)
inactive: [1] > 100 µM | [2] > 100 µM | [3] > 100 µM | [4] > 100 µM | [5] 99.8 µM | [6] 54.5 µM | [7] > 100 µM | [8] > 100 µM | [9] > 100 µM | [10] > 100 µM | [11] > 100 µM | [12] > 100 µM | [13] > 100 µM | [14] > 100 µM | [15] > 100 µM | [16] > 100 µM

CCOC(=O)Cc1csc(Nc2ccc(OCC)cc2)n1
inactive: [1] > 100 µM | [2] > 100 µM | [3] > 100 µM | [4] > 100 µM | [5] > 100 µM | [6] > 100 µM | [7] > 100 µM | [8] 73.8 µM | [10] > 100 µM | [12] > 100 µM | [13] > 100 µM | [14] > 100 µM | [15] > 100 µM | [16] > 100 µM

O=C(O)CSc1nnc(COc2ccc(Cl)cc2)n1-c1ccccc1
inactive: [1] > 100 µM | [2] > 100 µM | [3] > 100 µM | [4] > 100 µM | [5] > 100 µM | [6] > 100 µM | [7] > 100 µM | [17] > 100 µM | [9] > 100 µM | [10] > 100 µM | [11] > 100 µM | [18] > 100 µM | [12] > 100 µM | [13] > 100 µM | [14] > 100 µM | [15] > 100 µM | [16] > 100 µM

NNC(=S)N/N=C(/C(=O)Nc1cc(Cl)ccc1Cl)C1C(=O)Nc2ccccc2[S+]1[O-] (centres undefined)
inactive: [1] > 100 µM | [2] > 100 µM | [3] > 100 µM | [4] > 100 µM | [5] > 100 µM | [6] > 100 µM | [7] > 100 µM | [8] 94.2 µM | [9] > 100 µM | [10] > 100 µM | [11] > 100 µM | [12] > 100 µM | [13] > 100 µM | [14] > 100 µM | [15] 55.1 µM | [16] 73.3 µM

O=C(NCCS(=O)(=O)N1C(=O)C2CCCN2C(=O)[C@@H]1Cc1ccccc1)OCc1ccccc1 (some centres undefined)
inactive: [1] 99.8 µM | [2] 69.8 µM | [3] 42.8 µM | [4] 52.8 µM | [5] 38.1 µM | [6] 40.4 µM | [7] 39.5 µM | [8] 57.1 µM | [9] > 100 µM | [10] 24 µM | [11] 45.4 µM | [12] 50 µM | [13] 38 µM | [14] 28.2 µM | [15] 40.9 µM | [16] 41.1 µM

CC(C)[Si](OC12CCC(CC1O)CC2C(=O)O)(C(C)C)C(C)C (centres undefined)
inactive: [1] 14.4 µM | [2] 16.1 µM | [3] 11.7 µM | [4] 21.7 µM | [5] 3.88 µM | [6] 7.76 µM | [7] 10.7 µM | [8] 23.2 µM | [17] 13.2 µM | [9] 13.9 µM | [11] 13.1 µM | [18] 14.5 µM | [12] 15.7 µM | [14] 13.2 µM | [16] 14.5 µM

Cc1ccc(/C=c2\cc3oc(=O)c4cccc(c4-3)c2=O)cc1
inactive: [1] > 100 µM | [2] 97.7 µM | [3] > 100 µM | [4] > 100 µM | [5] > 100 µM | [6] > 100 µM | [7] > 100 µM | [8] 34.1 µM | [17] > 100 µM | [9] > 100 µM | [10] > 100 µM | [11] 19.6 µM | [18] > 100 µM | [12] > 100 µM | [14] > 100 µM | [15] > 100 µM

CO/C(N)=C(C#N)/N=C/c1cccnc1
inactive: [1] > 100 µM | [2] > 100 µM | [3] > 100 µM | [4] > 100 µM | [5] > 100 µM | [7] > 100 µM | [17] > 100 µM | [9] > 100 µM | [10] > 100 µM | [11] 35.8 µM | [18] > 100 µM | [12] > 100 µM | [13] > 100 µM | [15] > 100 µM | [16] > 100 µM

O=C(NCCCN1CCN(CCCNC(=O)c2cccc3ccccc23)CC1)c1cccc2ccccc12
inactive: [1] 30.8 µM | [2] > 100 µM | [3] 41.2 µM | [4] > 100 µM | [5] 65.3 µM | [6] 93.1 µM | [7] 39.1 µM | [9] 23 µM | [10] 35.1 µM | [11] > 100 µM | [12] 54.8 µM | [14] 32.3 µM | [15] > 100 µM | [16] > 100 µM

O=C1CSC(c2c[nH]c3ccccc23)N1c1cccc([N+](=O)[O-])c1 (centres undefined)
inactive: [1] > 100 µM | [2] > 100 µM | [3] > 100 µM | [4] > 100 µM | [5] 81.8 µM | [6] 28.8 µM | [7] 73.1 µM | [8] > 100 µM | [9] > 100 µM | [10] > 100 µM | [11] > 100 µM | [18] 38.3 µM | [12] 66.7 µM | [13] > 100 µM | [14] 42.7 µM | [15] > 100 µM | [16] > 100 µM

C=C1C[C@]23CCC4C(C)(C)C(=O)CC[C@]4(C)C2C[C@H]1C(O)C3=O (some centres undefined)
inactive: [1] > 75 µM | [2] > 75 µM | [4] > 75 µM | [8] > 75 µM | [9] > 75 µM | [11] > 75 µM | [12] > 75 µM | [13] > 75 µM | [14] > 75 µM | [15] > 75 µM | [16] > 75 µM

O=C(Nc1cc(C(F)(F)F)ccc1Cl)C(=O)C(C(=O)c1ccc2ccccc2c1)C1OC(=O)c2ccccc21 (centres undefined)
inactive: [1] 6.01 µM | [2] 5.09 µM | [3] 13.8 µM | [4] 13 µM | [5] 20.7 µM | [6] 3.79 µM | [7] 4.8 µM | [8] 2.62 µM | [9] 31.3 µM | [10] 10.1 µM | [11] 4.11 µM | [12] 4.81 µM | [13] 1.2 µM | [14] 12.4 µM | [15] 13.5 µM | [16] 9.57 µM
